Results: PubChem BioAssay AID2060898 (Molecular Pharmacology Branch, DTP, NCI, 2025)

Test system: 616215-338-R-J1-PDC complex spheroid viability
Assay: Anticancer human tumor 616215-338-R-J1-PDC patient-derived colon adenocarcinoma cell line growth inhibition [RAS]
Settings: for IC50: curve of first compound; for viability, T/C: stronger effect = lower value; active = viability on the fitted dose curve at most 10% of control; inactive = the rest
Summary of the method: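 Multi-cell-type spheroids: tumor cells plus HUVEC endothelial cells and mesenchymal stem cells. RAS-pathway inhibitors were combined with targeted agents, each dosed in half-log steps down from clinical Cmax, or from 10 microM when Cmax was unknown.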

[1] = second compound 0.00316 µM, first compound 0.00316 µM
[2] = second compound 0.00316 µM, first compound 0.01 µM
[3] = second compound 0.00316 µM, first compound 0.0316 µM
[4] = second compound 0.00316 µM, first compound 0.1 µM
[5] = second compound 0.00316 µM, first compound 0.316 µM
[6] = second compound 0.00316 µM, first compound 1 µM
[7] = second compound 0.01 µM, first compound 0.00316 µM
[8] = second compound 0.01 µM, first compound 0.01 µM
[9] = second compound 0.01 µM, first compound 0.0316 µM
[10] = second compound 0.01 µM, first compound 0.1 µM
[11] = second compound 0.01 µM, first compound 0.316 µM
[12] = second compound 0.01 µM, first compound 1 µM
[13] = second compound 0.0316 µM, first compound 0.00316 µM
[14] = second compound 0.0316 µM, first compound 0.01 µM
[15] = second compound 0.0316 µM, first compound 0.0316 µM
[16] = second compound 0.0316 µM, first compound 0.1 µM
[17] = second compound 0.0316 µM, first compound 0.316 µM
[18] = second compound 0.0316 µM, first compound 1 µM
[19] = second compound 0.1 µM, first compound 0.00316 µM
[20] = second compound 0.1 µM, first compound 0.01 µM
[21] = second compound 0.1 µM, first compound 0.0316 µM
[22] = second compound 0.1 µM, first compound 0.1 µM
[23] = second compound 0.1 µM, first compound 0.316 µM
[24] = second compound 0.1 µM, first compound 1 µM
[25] = second compound 0.316 µM, first compound 0.00316 µM
[26] = second compound 0.316 µM, first compound 0.01 µM
[27] = second compound 0.316 µM, first compound 0.0316 µM
[28] = second compound 0.316 µM, first compound 0.1 µM
[29] = second compound 0.316 µM, first compound 0.316 µM
[30] = second compound 0.316 µM, first compound 1 µM
[31] = second compound 1 µM, first compound 0.00316 µM
[32] = second compound 1 µM, first compound 0.01 µM
[33] = second compound 1 µM, first compound 0.0316 µM
[34] = second compound 1 µM, first compound 0.1 µM
[35] = second compound 1 µM, first compound 0.316 µM
[36] = second compound 1 µM, first compound 1 µM
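Note: spheroids exposed to agents for seven days before viability readout.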
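Throughout, for viability, T/C: 100% = DMSO vehicle control viability.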

CC1(C)CCC(Nc2ncc(C(F)(F)F)c(-c3c[nH]c4c(P(C)(C)=O)c(C#N)ccc34)n2)CN1 (stereo not drawn) + C#Cc1c(F)ccc2cc(O)cc(-c3ncc4c(N5CC6CCC(C5)N6)nc(OCC56CCCN5CC(F)C6)nc4c3F)c12
5.91 nM: IC50 (second compound 10 µM)
inactive: viability, T/C (second compound 0.0316 µM, first compound 0.000949 µM) 103% | viability, T/C (second compound 0.0316 µM, first compound 0.003 µM) 112% | viability, T/C (second compound 0.0316 µM, first compound 0.00949 µM) 70.1% | viability, T/C (second compound 0.0316 µM, first compound 0.03 µM) 37.4% | viability, T/C (second compound 0.0316 µM, first compound 0.0949 µM) 35.9% | viability, T/C (second compound 0.0316 µM, first compound 0.3 µM) 36.8% | viability, T/C (second compound 0.1 µM, first compound 0.000949 µM) 107% | viability, T/C (second compound 0.1 µM, first compound 0.003 µM) 105% | viability, T/C (second compound 0.1 µM, first compound 0.00949 µM) 56.7% | viability, T/C (second compound 0.1 µM, first compound 0.03 µM) 37.7% | viability, T/C (second compound 0.1 µM, first compound 0.0949 µM) 31.8% | viability, T/C (second compound 0.1 µM, first compound 0.3 µM) 28.2% | viability, T/C (second compound 0.316 µM, first compound 0.000949 µM) 109% | viability, T/C (second compound 0.316 µM, first compound 0.003 µM) 105% | viability, T/C (second compound 0.316 µM, first compound 0.00949 µM) 66.5% | viability, T/C (second compound 0.316 µM, first compound 0.03 µM) 40.5% | viability, T/C (second compound 0.316 µM, first compound 0.0949 µM) 32.3% | viability, T/C (second compound 0.316 µM, first compound 0.3 µM) 31.9% | viability, T/C (second compound 1 µM, first compound 0.000949 µM) 117% | viability, T/C (second compound 1 µM, first compound 0.003 µM) 108% | viability, T/C (second compound 1 µM, first compound 0.00949 µM) 52.1% | viability, T/C (second compound 1 µM, first compound 0.03 µM) 31.2% | viability, T/C (second compound 1 µM, first compound 0.0949 µM) 27.8% | viability, T/C (second compound 1 µM, first compound 0.3 µM) 31.2% | viability, T/C (second compound 3.16 µM, first compound 0.000949 µM) 109% | viability, T/C (second compound 3.16 µM, first compound 0.003 µM) 89.3% | viability, T/C (second compound 3.16 µM, first compound 0.00949 µM) 45.8% | viability, T/C (second compound 3.16 µM, first compound 0.03 µM) 27.8% | viability, T/C (second compound 3.16 µM, first compound 0.0949 µM) 34.1% | viability, T/C (second compound 3.16 µM, first compound 0.3 µM) 36.7% | viability, T/C (second compound 10 µM, first compound 0.000949 µM) 96.5% | viability, T/C (second compound 10 µM, first compound 0.003 µM) 69.3% | viability, T/C (second compound 10 µM, first compound 0.00949 µM) 37.5% | viability, T/C (second compound 10 µM, first compound 0.03 µM) 24.7% | viability, T/C (second compound 10 µM, first compound 0.0949 µM) 32.5% | viability, T/C (second compound 10 µM, first compound 0.3 µM) 31.7%
19 nM: IC50 (second compound 0.0316 µM)
8.28 nM: IC50 (second compound 3.16 µM)
10.7 nM: IC50 (second compound 1 µM)
18.9 nM: IC50 (second compound 0.316 µM)
13.4 nM: IC50 (second compound 0.1 µM)

C=CC(=O)Nc1cc(Nc2nccc(-c3cn(C)c4ccccc34)n2)c(OC)cc1N(C)CCN(C)C + C=CC(=O)N1CCN(c2nc(OCC3CCCN3C)nc3c(F)c(-c4nc(N)cc(C)c4C(F)(F)F)c(Cl)cc23)C(C)C1
> 1000 nM: IC50 (second compound 0.00316 µM) | IC50 (second compound 0.01 µM) | IC50 (second compound 0.0316 µM) | IC50 (second compound 0.1 µM) | IC50 (second compound 0.316 µM) | IC50 (second compound 1 µM)
inactive: viability, T/C [1] 95.8% | viability, T/C [2] 105% | viability, T/C [3] 107% | viability, T/C [4] 104% | viability, T/C [5] 106% | viability, T/C [6] 85.6% | viability, T/C [7] 93% | viability, T/C [8] 108% | viability, T/C [9] 99% | viability, T/C [10] 101% | viability, T/C [11] 108% | viability, T/C [12] 101% | viability, T/C [13] 101% | viability, T/C [14] 110% | viability, T/C [15] 107% | viability, T/C [16] 99.3% | viability, T/C [17] 108% | viability, T/C [18] 96% | viability, T/C [19] 103% | viability, T/C [20] 102% | viability, T/C [21] 88.6% | viability, T/C [22] 106% | viability, T/C [23] 128% | viability, T/C [24] 74.2% | viability, T/C [25] 105% | viability, T/C [26] 98.9% | viability, T/C [27] 99.4% | viability, T/C [28] 106% | viability, T/C [29] 109% | viability, T/C [30] 74.4% | viability, T/C [31] 96.9% | viability, T/C [32] 98.3% | viability, T/C [33] 91% | viability, T/C [34] 114% | viability, T/C [35] 110% | viability, T/C [36] 68.9%

CC(Nc1ccc2c(c1)OCCn1cc(N3C(=O)OCC3C(F)F)nc1-2)C(N)=O (stereo not drawn) + C=CC(=O)N1CCN(c2nc(OCC3CCCN3C)nc3c(F)c(-c4nc(N)cc(C)c4C(F)(F)F)c(Cl)cc23)C(C)C1
inactive: viability, T/C [3] 106% | viability, T/C [4] 122% | viability, T/C [5] 109% | viability, T/C [6] 101% | viability, T/C (second compound 0.00316 µM, first compound 3.16 µM) 100% | viability, T/C (second compound 0.00316 µM, first compound 10 µM) 82.2% | viability, T/C [9] 106% | viability, T/C [10] 115% | viability, T/C [11] 110% | viability, T/C [12] 111% | viability, T/C (second compound 0.01 µM, first compound 3.16 µM) 105% | viability, T/C (second compound 0.01 µM, first compound 10 µM) 85.9% | viability, T/C [15] 110% | viability, T/C [16] 114% | viability, T/C [17] 119% | viability, T/C [18] 115% | viability, T/C (second compound 0.0316 µM, first compound 3.16 µM) 93.3% | viability, T/C (second compound 0.0316 µM, first compound 10 µM) 80.1% | viability, T/C [21] 111% | viability, T/C [22] 108% | viability, T/C [23] 107% | viability, T/C [24] 131% | viability, T/C (second compound 0.1 µM, first compound 3.16 µM) 101% | viability, T/C (second compound 0.1 µM, first compound 10 µM) 77.9% | viability, T/C [27] 109% | viability, T/C [28] 103% | viability, T/C [29] 111% | viability, T/C [30] 109% | viability, T/C (second compound 0.316 µM, first compound 3.16 µM) 103% | viability, T/C (second compound 0.316 µM, first compound 10 µM) 86.2% | viability, T/C [33] 106% | viability, T/C [34] 107% | viability, T/C [35] 109% | viability, T/C [36] 119% | viability, T/C (second compound 1 µM, first compound 3.16 µM) 98% | viability, T/C (second compound 1 µM, first compound 10 µM) 73.4%
> 10000 nM: IC50 (second compound 0.00316 µM) | IC50 (second compound 0.01 µM) | IC50 (second compound 0.0316 µM) | IC50 (second compound 0.1 µM) | IC50 (second compound 0.316 µM) | IC50 (second compound 1 µM)

O=C(c1ccc(F)c(F)c1Nc1ccc(I)cc1F)N1CC(O)([C@@H]2CCCCN2)C1 + C=CC(=O)N1CCN(c2nc(OCC3CCCN3C)nc3c(F)c(-c4nc(N)cc(C)c4C(F)(F)F)c(Cl)cc23)C(C)C1
89.4 nM: IC50 (second compound 0.1 µM)
61.3 nM: IC50 (second compound 1 µM)
72.1 nM: IC50 (second compound 0.0316 µM)
62.1 nM: IC50 (second compound 0.00316 µM)
active: viability, T/C [6] 4.36% | viability, T/C [12] 6.62% | viability, T/C [18] 3.89% | viability, T/C [24] 6.51% | viability, T/C [30] 4.52% | viability, T/C [36] 5.31%
70.7 nM: IC50 (second compound 0.01 µM)
67.4 nM: IC50 (second compound 0.316 µM)
inactive: viability, T/C [1] 114% | viability, T/C [2] 112% | viability, T/C [3] 65.3% | viability, T/C [4] 38.6% | viability, T/C [5] 12.9% | viability, T/C [7] 98.8% | viability, T/C [8] 108% | viability, T/C [9] 81.7% | viability, T/C [10] 36% | viability, T/C [11] 13.1% | viability, T/C [13] 110% | viability, T/C [14] 115% | viability, T/C [15] 74.7% | viability, T/C [16] 40% | viability, T/C [17] 15% | viability, T/C [19] 106% | viability, T/C [20] 116% | viability, T/C [21] 82.5% | viability, T/C [22] 47.5% | viability, T/C [23] 16.7% | viability, T/C [25] 100% | viability, T/C [26] 105% | viability, T/C [27] 80.6% | viability, T/C [28] 33.1% | viability, T/C [29] 13.9% | viability, T/C [31] 102% | viability, T/C [32] 101% | viability, T/C [33] 72.2% | viability, T/C [34] 31.7% | viability, T/C [35] 18.8%
